In patent US6743895B1, “Bone stimulating factor” (Osteopharm Inc., priority 1995, dated 2004):
Residues, ends and D or L forms follow the SMILES beside them. No end group written: not given here.

Legend:
ovariectomized rats [1] = assay: Full autopsy after four week administration to ovariectomized rats; type: in vivo, Sprague-Dawley rats; details: 100 μg s.c. every 24 hours for 28 days
Protocol: The six ovariectomized rats were injected subcutaneously with 100 μl of a 0.1% acetic acid solution containing 100 μg of the chemically synthesized peptide (SEQ ID NO:1) every 24 hours for 28 days. On day 25, a tetracycline hydrochloride solution was injected intramuscularly into each rat so as to give 24 mg per Kg of body weight, as described previously. On day 27, a second dose of tetracycline hydrochloride was injected and the rats were sacrificed on the 28th day.
Post-mortem blood was taken by cardiac puncture and serum frozen until analyzed. A full autopsy was performed on each rat.

ovariectomized rats [2] = assay: Bone mineral (calcium) content by DEXA in ovariectomized rats; type: in vivo, rat; details: 25 nmoles s.c. each day
Protocol: Ovariectomies were performed on rats as described above. A 0.1% acetic acid solution containing 25 nmoles of the polypeptide was administered subcutaneously to each rat each day for the duration of the experiment. […] Another group of rats was treated for eight weeks beginning eight weeks after ovariectomization. Rats were sacrificed at the end of the treatment period and dissected and post mortem assessment of bone mineral content was carried out. The lumbar spines L1-L4 were cleaned with a power nylon brush to remove the attached muscle. They were placed ventral side down under 3 cm of distilled water in a polypropylene container and scanned by a dual energy x-ray absorptometer (DEXA). Hologic 100, to determine the calcium content in grams. The right femur of each rat was also dissected out intact and cleared of the attached muscles with a power nylon brush. It was scanned dorsal side down under 3 cm of distilled water by DEXA. Four regions of the femur were scanned, as indicated in FIGS. 10 and 11: A, proximal end; B, diaphysis; C, distal end; and D, neck. The bone mineral (i.e., calcium) content in grams was estimated in the four zones of the femur based on absorption and using an internal standard of the machine.

[3] = Stability of dissolved polypeptides (capillary electrophoresis, RP-HPLC); type: physicochemical; details: 37° C.
Protocol: Each of the polypeptides having the sequences identified as SEQ ID NO: 7 and 24 was dissolved in 5 mM acetic acid to a final concentration of 1 mg/ml and incubated at 37° C. The peptide compositions were analyzed weekly by capillary electrophoresis on a P/ACE 6000 system (Beckman) using 50 mM sodium phosphate pH 2.5 as the running buffer on a 57 cm long×75 μm internal diameter capillary. The incubated peptide (20 μl) was diluted with 80 μl of running buffer, placed in a 500 μl vial prior to injection onto the P/ACE using pressure for 20 seconds. Following electrophoresis of the incubated peptide at 30 kV for 15 min a second run was carried out using freshly dissolved peptide as a control.
Each of the polypeptides was dissolved in 20 mM sodium phosphate pH 3.0, 20 mM ammonium acetate pH 4.0, 20 mM ammonium acetate pH 5.0, 20 mM MES pH 6.0, 20 mM sodium phosphate pH 7.0, 20 mM sodium phosphate pH 7.5, 20 mM sodium phosphate pH 8.0, 20 mM ammonium acetate pH 8.5 or 20 mM ammonium acetate pH 9.5 to a final concentration of 1 mg/ml. The peptide was incubated at 37° C. and the peptide assayed weekly by separation on P/ACE as described above. Some samples were separated by RP-HPLC and the isolated peaks subjected to mass spectroscopic analysis.
The protected polypeptide identified as SEQ ID NO:24 was dissolved in 20 mM or 250 mM ammonium acetate pH 4.5 to a final concentration of 1 mg/ml. In some experiments the buffer was supplemented with 20 mM EDTA. The peptide solution was then incubated at −70° C., −20° C., 4° C. or room temperature (22° C.). Samples were assayed weekly by electrophoresis on the P/ACE as described above and/or by RP-HPLC.
The stability of each of the polypeptides having the amino acid sequences identified as SEQ ID NOs: 25, 26 and 27 was tested as described above.

rats = assay: Bone mineral apposition rate in intact rats after subcutaneous injection of polypeptide, tetracycline labelling; type: in vivo, Sprague-Dawley rats
Protocol: Experiments were carried out on three groups of six rats weighing between 295 and 320 g. A 1 mg per ml solution of the modified peptide (SEQ ID NO:3) was prepared in 0.1% acetic acid. A 1 mg per ml solution of the normal peptide (SEQ ID NO:1) was prepared in 0.1% acetic acid. Each rat of a first of the groups had subcutaneously injected into its right thigh 0.1 ml of the modified peptide solution. Similarly, each rat of the second group was injected with 0.1 ml of the normal peptide solution. Each rat of the third group, the control group, was injected with 0.1 ml of 0.1% acetic acid solution. Immediately following these injections, each rat was injected intramuscularly with 24 mg per Kg body weight of tetracycline hydrochloride dissolved in 0.5 ml of water. A second dose of tetracycline hydrochloride was administered 48 hours later. The animals were sacrificed 24 hours after the second dose by CO2 narcosis. The lower metaphysis of the right femur was dissected out and fixed in a 10% aqueous solution of formaldehyde buffered at pH 7.2 by acetate buffer. Bone sections were prepared for measurement as described above.
Sprague-Dawley rats were used as test animals to determine bone mineral apposition rate, as described above. Male rats having weights between 280 and 380 g were subject to subcutaneous injection after one week of acclimatization. Each animal was injected with 200 μl of a 0.1% acetic acid test solution, solutions having been prepared at concentrations to obtain a dosage of about 25 nmol of polypeptide per animal. Each test dose was immediately followed by intramuscular injection of 24 mg per Kg of body weight of tetracycline hydrochloride. A second injection of tetracycline was made 48 hours later.
Bone mineral apposition rates were determined by measurements of the lower metaphysis of the right femur, as described previously. Results obtained in the two sets of experiments are summarized in Tables Seven and Eight and graphically depicted in FIGS. 8 and 9.
Bone mineral apposition rates were again determined by measurement of the lower metaphysis of the right femur. Results obtained are summarized in Table Nineteen and graphically depicted in FIG. 12. […]
In a final set of experiments, a polypeptide having the ninth amino acid, cysteine, replaced by the amino acid tyrosine, SEQ ID NO:43, was synthesized and tested for bone stimulatory activity. Four rats (about 300 grams) were each administered with 100 nmoles of material (in 400 μl 20 mM acetic acid solution) by subcutaneous injection along with tetracycline (5 mg per animal in 400 μl water), as described above. A second dosage of tetracycline was administered 48 hours later and the animals sacrificed 24 hours after that. The lower metaphysis of the right femur was examined to determine the bone mineral apposition rate. For comparison, experiments were performed using a control in which no compound was present in the acetic acid solution.

Full autopsy findings (ovariectomized rats [1])	Compound	Bone Mineral Content Measured in Distal End of Femur, Mean (ovariectomized rats [2]; Administered over 56 Days)	Bone Mineral Content Measured in Femoral Diaphysis, Mean (ovariectomized rats [2]; Administered over 56 Days)	Bone Mineral Content Measured in Femoral Neck, Mean (ovariectomized rats [2]; Administered over 56 Days)	Bone Mineral Content Measured in Proximal End of Femur, Mean (ovariectomized rats [2]; Administered over 56 Days)	Bone Mineral Content Measured in Spine L1-L4, Mean (ovariectomized rats [2]; Administered over 56 Days)	Bone Mineral Content Measured in Distant End of Femur, Mean (ovariectomized rats [2]; Administered over 100 Days)	Bone Mineral Content Measured in Femoral Diaphysis, Mean (ovariectomized rats [2]; Administered over 100 Days)	Bone Mineral Content Measured in Femoral Neck, Mean (ovariectomized rats [2]; Administered over 100 Days)	Bone Mineral Content Measured in Proximal End of Femur, Mean (ovariectomized rats [2]; Administered over 100 Days)	Bone Mineral Content Measured in Spine L1-L4, Mean (ovariectomized rats [2]; Administered over 100 Days)	Stability when dissolved in dilute acids ([3]; 5 mM acetic acid, 1 mg/ml, analyzed weekly by capillary electrophoresis)	pH at which the peptide was most stable ([3]; 20 mM buffers pH 3.0 to 9.5, 1 mg/ml)	Mean Bone Apposition Rate (rats; about 125 nmoles of polypeptide per Kg of body weight (Table Twenty))	Bone mineral apposition rate, Mean (rats; male Sprague-Dawley rats 280-380 g, about 25 nmol per animal s.c., first set (Table Seven))
No ill effects were observed	CC[C@H](C)[C@H](NC(=O)CN)C(=O)NCC(=O)N[C@@H](CCCCN)C(=O)N[C@@H](CCCNC(=N)N)C(=O)N[C@H](C(=O)N[C@@H](CC(N)=O)C(=O)N[C@@H](CCC(=O)O)C(=O)N[C@@H](Cc1c[nH]cn1)C(=O)N[C@H](C(=O)N[C@@H](C)C(=O)N[C@@H](CC(=O)O)C(=O)N[C@@H](CS)C(=O)N[C@@H](CCCCN)C(=O)N[C@H](C(=O)N[C@@H](CCCCN)C(=O)N1CCC[C@H]1C(=O)N[C@@H](CC(N)=O)C(=O)N[C@H](C(=O)N[C@@H](CC(C)C)C(=O)N[C@@H](Cc1c[nH]cn1)C(=O)N[C@@H](CCCCN)C(=O)N[C@@H](CCCCN)C(=O)N[C@@H](C)C(=O)N[C@@H](C)C(=O)N[C@@H](CCC(=O)O)C(=O)N[C@H](C(=O)N[C@@H](CC(C)C)C(=O)N[C@@H](CCSC)C(=O)N[C@H](C(=O)N[C@@H](CC(C)C)C(=O)N[C@@H](CC(=O)O)C(=O)N[C@@H](CCC(N)=O)C(=O)N[C@@H](CC(N)=O)C(=O)N[C@@H](CCC(N)=O)C(=O)N1CCC[C@H]1C(=O)O)C(C)C)[C@@H](C)O)[C@@H](C)O)[C@@H](C)CC)[C@@H](C)O)[C@@H](C)O [SEQ ID NO:1] (H-GIGKRTNEHTADCKIKPNTLHKKAAETLMVLDQNQP-OH)														
	GIGKRTNEHTADCKI [SEQ ID NO:7]	0.1347 g	0.2091 g	0.0274 g	0.1328 g	0.4606 g	0.1424 g	0.2347 g	0.0351 g	0.1411 g	0.4758 g	degraded overtime	4.5	2.18 μm/day	1.41 μm per day
